Results taken from patent publication US10766873B2, “Zuclopenthixol hydrochloride derivatives and Ebselen derivatives as ErbB2 inhibitors” (Centre National de la Recherche Scientifique (CNRS), priority 2016, dated 2020).
Read-outs that look alike come from different tables or passages of the source.

How the values were obtained:
BT474 = experiment: MTT cell proliferation, BT474; type: cell-based, human; conditions: for EC50: read-out: Cell proliferation at d 3 BT474 EC50
Procedure: (§1) We then analyzed the ability of ZU and EB1 and their derivatives to decrease the ErbB2-dependent cell proliferation.
(§2) SKBR3, BT474, MCF-7, MDA-MB-231 and HBMEC cells were treated with the compounds as indicated, and cell proliferation was determined each day during 3 days using an MTT assay. Non treated cells were included as a negative control.
(§3) A solution of ZU in cis conformation was mixed to a solution of ZU in trans conformation (1:1) to obtain ZU in a 50/50 cis/trans conformation and their respective effects on ErbB2 activation and ErbB2-dependent cell proliferation were analyzed as previously by dot blot analysis using an anti-phosphotyrosine antibody (clone 4G10) and by MTT assays in the ErbB2-overexpressing breast cancer cell line SKBR3, BT474, or HBMEC as a control.

[1] = molecular target: T1, FERM/ErbB2 interaction (Ezrin FERM domain / juxtamembrane ErbB2 peptide) (Homo sapiens, UniProt P04626); experiment: AlphaScreen competition assay, FERM/ErbB2 interaction; type: binding; conditions: for Competition assay FERM-ErbB2 interaction Max inhibition, %: 20 h
T1 construct: made in house
Source text: To validate that the Zuclopenthixol hydrochloride (ZU) and its derivatives interact with the juxtamembrane domain of ErbB2, we first analyzed in AlphaScreen® their efficiency to inhibit FERM/ErbB2 interaction in a dose-dependent manner and determined IC50 value. Furthermore, to test the selectivity of those compounds, we tested their ability to disrupt the interaction between the FERM domain and the known ERM binding motif contained in the juxtamembrane region of CD44 as a control.
AlphaScreen® technology was used to assess the interaction between the Ezrin binding motif (EBM) contained in the juxtamembrane portions of ErbB2 or CD44 with the Ezrin FERM domain. For this purpose the Ezrin FERM domain in fusion with Glutathione-S-Transferase (GST) has been coupled to GSH-coated acceptor beads. […] The AlphaScreen® reagents (Glutathione-coated Acceptor beads and streptavidin-coated Donor beads) were obtained from PerkinElmer.
The reaction was performed using white 384-well Optiplates (PerkinElmer, Whalham, Mass., USA) in 20 μl (total reaction volume) in a reaction buffer containing PBS, pH 7.4, 5 mM MgCl2 and 0.02% CHAPS. […] 10 μl of a mix solution containing 20 μg/ml Glutathione-coated Acceptor beads and 20 μg/ml streptavidin-coated Donor beads was then added to the wells and incubation was further proceeded for 40 min or overnight in the dark and at room temperature. Light signal was detected with the EnVision® multilabel plate reader (PerkinElmer). All experiments involving AlphaScreen® beads were performed under subdued lighting.

ErbB2 = ErbB2 (Homo sapiens, UniProt P04626); experiment: ErbB2 phosphorylation in SKBR3 cells, dot blot (4G10); type: cell-based; parameters: endogenous in cells; host or cells: SKBR3; conditions: for Emax: SK-BR-3, read-out: ErbB2 activation 24 h Max inhibition, %; for effect on ErbB2 phosphorylation/activation (in words): SKBR3
Procedure: The ability of ZU and EB1 and their derivatives to inhibit ErbB2 activity in cellulo on a commonly used ErbB2-overexpressing breast cancer cell line SKBR3 was analyzed. SKBR3 were treated 24 h with increasing concentrations of the compounds (0.625-80 μM) and ErbB2 phosphorylation was addressed by dot blot analysis using an anti-phosphotyrosine antibody (clone 4G10). Quantifications show the result of two independent experiments.

SKBR3 = experiment: MTT cell proliferation, SKBR3; type: cell-based, human; conditions: for EC50: read-out: Cell proliferation at d 3 SKBR3 EC50
Procedure: as §1, §2, §3

HBMEC = experiment: MTT cell proliferation, HBMEC control cells; type: cell-based, human
Procedure: as §1, §2
The WT, V777L or V842I ErbB2-transfected cells were treated with 5 or 10 μM of ZU and cell proliferation was determined each day during 3 days using an MTT assay. Non transfected cells were included as a negative control.
The WT, V777L or V842I ErbB2-transfected cells were treated with 5 or 10 μM of EB1 and cell proliferation was determined each day during 3 days using an MTT assay. Non transfected cells were included as a negative control.

[2] = tested on: EGFR/ErBB2 or ErbB3/ErbB2 heterodimers-dependent signalling pathways; experiment: Ligand-dependent ErbB2 activation (EGF or HRG) in HBMECs, western blot; type: cell-based; conditions: pre-treatment 1 h or 24 h
Procedure: In physiological conditions, ErbB2 activation occurs in heterodimer with the other ErbB family members, such as the EGFR in response to EGF stimulation or ErbB3 in response to heregulin (HRG) stimulation. We therefore addressed whether ZU, EB1 and their derivatives also affected the ligand-dependent physiological ErbB2 activation.
16 h-starved HBMECs cells were pre-treated or not for 1 h or 24 h with ZU, […] and their derivatives or AG1478 before EGF (50 ng/mL) or HRG1β (100 ng/mL) stimulation for 5 minutes. The activation of EGFR/ErBB2 or ErbB3/ErbB2 heterodimers-dependent signalling pathways was then analysed by western blot experiments using pAkt, Akt, pERK, ERK or 4G10 antibodies.

[3] = SKBR3, 24 h, read-out: ErbB2 activation 24 h EC50
[4] = Homo sapiens, BT-474, 72 h, day 3
[5] = SKBR3, 24 h, read-out: IC50 ErbB2 phosphorylation
[6] = Homo sapiens, SK-BR-3, 72 h, day 3
[7] = Homo sapiens, 72 h, day 3, read-out: Cell proliferation at d 3 HBMEC EC50
[8] = Homo sapiens, 72 h, read-out: Cell proliferation at d 3 HBMEC EC50, μM

Row | Compound | Cell proliferation at d 3 BT474 Max inhibition, % (BT474; day 3) [%] | inhibition of FERM/ErbB2 interaction (in words) [1] | Competition assay FERM-ErbB2 interaction Max inhibition, % [1] [%] | EC50 (ErbB2; [3]) [µM] | Cell proliferation at d 3 SKBR3 Max inhibition, % (SKBR3; day 3) [%] | Cell proliferation at d 3 HBMEC Max inhibition, % (HBMEC; day 3) [%] | EC50 (BT474; [4]) [µM] | Emax (ErbB2; SKBR3, 24 h, 0.625-80 μM) [%] | EC50 (SKBR3; [6]) [µM] | other results
1 | 9-(3-(4-(2-hydroxyethyl)piperazinyl)propylidene)-thioxanthene [ZU3] | 31.5 | inhibited FERM/ErbB2 interaction in a specific and dose-dependent manner | 28 | 32.4 | 32.6 | 0 |  |  |  | reduction of BT474 proliferation (BT474; 20 μM): 30%; EC50 (BT474; day 3): 4.2 µM; ErbB2 activation 24 h Max inhibition, % (ErbB2; SKBR3, 24 h, 0.625-80 μM): 75.12%; reduction of SKBR3 proliferation (SKBR3; 20 μM): 30%; EC50 (SKBR3; day 3): 15.5 µM; effect on HBMEC proliferation (in words) (HBMEC; 20 μM): without any effect
2 | OCCN1CCN(CC/C=C2\c3ccccc3Sc3ccc(Cl)cc32)CC1 (single isomer, unassigned) [trans isomer] |  |  |  |  |  |  |  |  |  | effect on BT474 proliferation (in words) (BT474; 10 μM): no significant inhibitory effect; effect on SKBR3 proliferation (in words) (SKBR3; 10 μM): no significant inhibitory effect
3 | COc1cc2ncnc(Nc3cccc(Cl)c3)c2cc1OC [AG1478] |  |  |  |  |  |  |  |  |  | ligand-dependent ErbB2 activation induced by EGF or HRG stimulation (in words) [2]: strongly blocked
4 | Cc1ccc(-n2sc3ccccc3c2=O)cc1 [EB2] | 20 |  |  | 18.2 | 34.1 | 29.5 | 11.7 | 43.8 | 9.3 | IC50 (ErbB2; [5]): 18 to 20 µM; effect on SKBR3 proliferation (in words) (SKBR3; 5 μM): did not significantly decreased; effect on HBMEC proliferation (in words) (HBMEC; 5 μM): without any effect; EC50 (HBMEC; [7]): 11.5 µM
5 | O=c1c2ccccc2sn1-c1ccc(Cl)cc1 [EB3] | 82.7 |  |  | 19.5 | 63.5 | 75.1 | 6.9 | 66.4 | 8.9 | reduction of BT474 proliferation (BT474; 7 μM, day 2): 30%; IC50 (ErbB2; [5]): 18 to 20 µM; effect on SKBR3 proliferation (in words) (SKBR3; 7 μM): did not significantly decreased; effect on HBMEC proliferation (in words) (HBMEC; 7 μM): without any effect; EC50 (HBMEC; [7]): 2770 µM
6 | O=c1c2ccccc2[se]n1-c1ccccc1 [EBa, reference compound] |  |  |  | 40.7 |  |  |  | 15.6 |  | reduction of ErbB2 phosphorylation (ErbB2; SKBR3, concentration of 10 μM): 15%; ligand-dependent ErbB2 activation induced by EGF or HRG stimulation (in words) [2]: did not block
7 | CN1CCN(CC/C=C2/c3ccccc3Sc3ccc(S(=O)(=O)N(C)C)cc32)CC1 [ZU2] |  | inhibited FERM/ErbB2 interaction in a specific and dose-dependent manner | 16 | 31.6 |  |  |  | 74.2 |  | IC50 (ErbB2; [5]): 5 to 35 µM
8 | CCOC(=O)C1CCN(CCC=C2c3ccccc3Sc3ccccc32)CC1 [ZU4, 9-(3-(4-(ethylacetate)piperidine)propylidene)-thioxanthene] |  | inhibited FERM/ErbB2 interaction in a specific and dose-dependent manner | 36 | 47.9 |  |  |  | 27.5 |  | effect on ErbB2 phosphorylation/activation (in words) (ErbB2): lower decrease
9 | CC(=O)OCCN1CCN(CC/C=C2/c3ccccc3Sc3ccc(Cl)cc32)CC1 [ZU5, (Z)-2-(4-(3-(2-chloro-9H-thioxanthen-9-ylidene)propyl)piperazin-1-yl)ethylacetate] | 30.8 | inhibited FERM/ErbB2 interaction in a specific and dose-dependent manner | 41 | 43.6 | 28.2 | 24.5 | 17.8 | 97.5 | 3.5 | reduction of BT474 proliferation (BT474; 1 and 5 μM, day 3): 33%; IC50 (ErbB2; [5]): 5 to 35 µM; reduction of SKBR3 proliferation (SKBR3; 1 and 5 μM, day 3): 60%; effect on HBMEC proliferation (in words) (HBMEC; 1 and 5 μM): without any effect; EC50 (HBMEC; [8]): 21.9 µM
10 | CCOC(=O)C1CCN(CCC=C2c3ccccc3Oc3ccccc32)CC1 [ZU6, ethyl 1-(3-(9H-xanthen-9-ylidene)propyl)piperidine-4-carboxylate] |  |  |  | 35.5 |  |  |  | 36.2 |  | effect on ErbB2 phosphorylation/activation (in words) (ErbB2): lower decrease
11 | NCCN1CCN(CC/C=C2/c3ccccc3Sc3ccc(C(F)(F)F)cc32)CC1 [ZUc, (Z)-2-(4-(3-(2-(trifluoromethyl)-9H-thioxanthen-9-ylidene)propyl)piperazin-1-yl) Ethanamine] | 94.9 |  | 45 |  | 78.9 | 68.8 | 0.23 | 90.8 | 0.34 | EC50 (ErbB2): 5.13 µM; IC50 (ErbB2): 5 to 35 µM; toxicity on control cells (in words) (HBMEC): non-specific toxic effects; EC50 (HBMEC; [8]): 0.14 µM
12 | FCCN1CCN(CC/C=C2/c3ccccc3Sc3ccc(C(F)(F)F)cc32)CC1 [ZUd, (Z)-1-(2-fluoroethyl)-4-(3-(2-(trifluoromethyl)-9H-thioxanthen-9-ylidene)propyl) Piperazine] | 86 |  | 54 |  | 86.4 |  | 16.5 | 51.4 | 6.7 | reduction of BT474 proliferation (BT474; 20 μM, day 3): 86%; EC50 (ErbB2): 20.4 µM; IC50 (ErbB2): 5 to 35 µM; reduction of SKBR3 proliferation (SKBR3; 20 μM, day 3): 86%; toxicity on control cells (in words) (HBMEC): non-specific toxic effects; EC50 (HBMEC; [8]): 16.3 µM; inhibition at 20 µM (HBMEC; Homo sapiens, 72 h, 20 μM, day 3): 90%
13 | O=C(O)C1CCN(CCC=C2c3ccccc3Oc3ccccc32)CC1 [ZUe, 1-(3-(9H-xanthen-9-ylidene)propyl)piperidine-4-carboxylic acid] |  |  |  |  |  |  |  | 0 |  | effect on ErbB2 phosphorylation/activation (in words) (ErbB2): no effect
14 | O=C(O)C1CCN(CCC=C2c3ccccc3Sc3ccccc32)CC1 [ZUf, 1-(3-(9H-thioxanthen-9-ylidene)propyl)piperidine-4-carboxylic acid] |  |  | 11 |  |  |  |  | 0 |  | effect on ErbB2 phosphorylation/activation (in words) (ErbB2): no effect
15 | CS(=O)(=O)CCNCc1ccc(-c2ccc3ncnc(Nc4ccc(OCc5cccc(F)c5)c(Cl)c4)c3c2)o1 [lapatinib, reference compound] |  | did not inhibit |  |  |  |  |  |  |  | 
